Laboratory results: patent US4803198A, “1-Phenyl-2-aminocarbonylindole compounds, preparation thereof and pharmaceutical compositions containing them” (Kali-Chemie Pharma GmbH, priority 1981, dated 1989)
Like-named read-outs stand apart in the source and are kept apart here.

What was measured:
[1] = system: disorders in cardiac rhythm induced by aconitine infusion; assay: Inhibition of disorders in cardiac rhythm induced by aconitine infusion (method of Raschak); type: in vivo, rats; settings: Rattus norvegicus, iv
Method: The compounds also show an inhibiting action on disorders in cardiac rhythm induced by aconitine infusion [extrasystoles (ES), ventricular tachycardia (VT) and ventricular fibrillation (VF)] in rats in the experimental method of Raschak (Arzneimittelforsch. 25 (1975) 639-641). Thus, for example, the minimum effective doses of 2-[3-(N,N-diethylamino)-2-hydroxypropylaminocarbonyl]-3-methoxy-1-phenylindole on intravenous administration 5 minutes before the start of aconitine infusion are as follows: […]

Acute toxicity = settings: in vivo; for LD50: mouse
Text: This gives a therapeutic range (=quotient LD50 .sbsb.mouse /EDmin) of 8-17.

[2] = system: isolated left auricle of female guinea pigs; assay: Functional refractory period prolonging and contraction force reducing action, double-stimulation method of Govier; settings: isolated atrium from guinea pigs; for EC (125%) / IC25: Cavia porcellus; for EC (125%): 0.3 h, 18 minutes after administration, read-out: FRP: concentration at which the functional refractory period is increased to 125%; for IC25: read-out: Force: concentration at which the contraction force is reduced to 75% of the starting value; for Force/FRP quotient of concentrations: indication of therapeutic range
Text: The favourable relationship between the functional refractory period prolonging action (FRP) and the contraction force reducing action (force) of the compounds can also be shown on the isolated left auricle of female guinea pigs of 300-400 g body weight by the double-stimulation method of Govier [J. Pharmakol.

mice = settings: mouse, in vivo
[3] = system: ventricular fibrillation caused by inhalation of chloroform; assay: Inhibition of ventricular fibrillation caused by inhalation of chloroform (method of Lawson); type: in vivo; settings: mice, 10 min before chloroform
Method: For example, in mice, the compounds have an inhibiting effect on ventricular fibrillation caused by inhalation of chloroform. The effect of the compounds on ventricular fibrillation in mice caused by inhalation of chloroform leading to rapid cessation of breathing is determined by the method of Lawson (J. Pharmacol. Exp. Ther. 160, 22-23).
In this experimental procedure, the minimum toxic dose can also be determined at the same time. The test substance, dissolved in 0.9% strength sodium chloride solution, is administered intraperitoneally to female mice of 17-24 g body weight. The animals are kept individually in glass beakers, where they are observed for possible toxic symptoms. Ten minutes after administration of the test substance, the animals are transferred to covered 300 ml glass beakers containing a cottonwool swab soaked with about 20 ml of chloroform. As soon as breathing begins to stop, the heart is exposed and the ventricular rhythm and rate are observed visually. The percentage of animals protected from ventricular fibrillation by the dose administered is given.
in the test described above, the compounds of formula I display antiarrhythmic actions in a dose range from 0.1 to 100 mg/kg.
The Example numbers given for the compounds of formula I relate to the preparation Exaples below.

Row | SMILES | Minimum toxic dose (mice; ip) | Minimum toxic dose (mice; po) | % of protected animals ([3]; dose 100 mg/kg ip) | also measured
1 | CCN(CC)CC(O)CNC(=O)c1c(OC)c2ccccc2n1-c1ccccc1 (stereo not shown) [Example 1, 2-[3-(N,N-Diethylamino)-2-hydroxypropylaminocarbonyl]-3-methoxy-1-phenylindole] | 300 mg/kg | 100 mg/kg | – | minimal effective dose ([1]; read-out: Minimum effective inhibiting dose, extrasystoles): 2.15 µmol/kg; minimal effective dose ([1]; read-out: Minimum effective inhibiting dose, heart rate): > 12 µmol/kg; minimal effective dose ([1]; read-out: Minimum effective inhibiting dose, ventricular fibrillation): 4.64 µmol/kg; minimal effective dose ([1]; read-out: Minimum effective inhibiting dose, ventricular tachycardia): 2.15 µmol/kg; LD50 (Acute toxicity; ip, administered intraperitoneally): 164 µmol/kg; LD50 (Acute toxicity; iv, administered intravenously): 37.3 µmol/kg; selectivity ratio (Acute toxicity; LD50 mouse over minimum effective dose in aconitine test, read-out: therapeutic range (=quotient LD50 mouse/EDmin)): 8 to 17; EC (125%) [2]: 3.6 µM; IC25 [2]: 6.3 µM; Force/FRP quotient of concentrations [2]: 1.8; % of protected animals ([3]; dose 25 mg/kg ip): 100%
2 | CN(C)CCNC(=O)c1c(O)c2ccccc2n1-c1ccc(Cl)cc1 [Example 2, 2-[2-(N,N-Dimethylamino)-ethylaminocarbonyl]-3-hydroxy-1-(4'-chlorophenyl)-indole] | ≥ 100 mg/kg | ≥ 300 mg/kg | 100% | –
3 | COc1c(C(=O)NCCN(C)C)n(-c2ccc(Cl)cc2)c2ccccc12 [Example 15] | ≥ 100 mg/kg | ≥ 300 mg/kg | 100% | –
4 | CCN(CC)CCCNC(=O)c1c(OC)c2ccccc2n1-c1ccccc1 [Example 20] | 300 mg/kg | 50 mg/kg | – | EC (125%) [2]: 0.66 µM; IC25 [2]: 3.57 µM; Force/FRP quotient of concentrations [2]: 5.4; % of protected animals ([3]; dose 10 mg/kg ip): 100%
5 | CCN(CC)CCCCNC(=O)c1c(OC)c2ccccc2n1-c1ccccc1 [Example 22] | 300 mg/kg | 50 mg/kg | – | % of protected animals ([3]; dose 10 mg/kg ip): 66.7%
6 | Cc1cccc(-n2c(C(=O)NCCN(C)C)c(O)c3ccccc32)c1C [Example 25] | ≥ 100 mg/kg | ≥ 300 mg/kg | 66.7% | –
7 | COc1c(C(=O)NCCN(C)C)n(-c2ccccc2)c2ccc(Br)cc12 [Example 30] | ≥ 300 mg/kg | 200 mg/kg | – | % of protected animals ([3]; dose 50 mg/kg ip): 33.3%
